Laboratory results taken from patent US10718782B2, “Method of evaluating cellulite and method of evaluating cellulite-effective drug using fibulin-3 and/or sarcoglycan gamma as an indicator” (Shiseido Company, Ltd., priority 2012, dated 2020).

Columns and labels:
sarcoglycan gamma = experiment: Addition of known cellulite-improving drugs to cultured fibroblasts, sarcoglycan gamma expression by quantitative PCR; assay type: cell-based; details: fibroblasts derived from human skin tissue, serum-free medium, 24 hours; conjugated linoleic acid 0.001% and 0.01% v/v, nicotinamide 0.0005% and 0.005% v/v; mRNA vs control
Procedure: (§1) Quantitative RT-PCR was carried out by using synthesized cDNA as the template, and further by using a reaction reagent LightCycler (registered trademark) FastStart DNA MasterPlus SYBR Green (Roche), and a reaction instrument LightCycler (Roche) or AB 7900 HT Fast Real-Time PCR System (Applied Biosystems). The condition for composition was as described in Roche's protocol. The annealing temperature of the primers was set at 60° C., and quantitated by using ΔΔCt method.
(§2) Fibroblasts derived from human skin tissue were plated in a 24-well type I collagen-coated dish (IWAKI), and cultured to 70-80% confluence in a 10% bovine fetal serum-supplemented DMEM (Gibco/Invitrogen) under the condition of 37° C. and 5% CO2. After replacing with a serum-free medium for half a day, it was further replaced with a serum-free medium with varying concentrations of conjugated linoleic acid (Sigma) (0.001% v/v, 0.01% v/v) or nicotinamide (Sigma) (0.0005% v/v, 0.005% v/v). 24 hours later, RNA was recovered by using RNeasy mini kit (Qiagen) according to Qiagen's protocol. As a control, RNA prepared and recovered by substituting the medium with an intact serum-free medium, and recovering RNA 24 hours later was used. The concentration of the recovered RNA was determined using a nucleic acid quantitation instrument Nanodrop (Thermo Scientific). […]

cellulite = details: applied on the affected cellulite site; Patent Literature 1 and 2, Non-patent Literature 8; cited from earlier work
fibulin-3 = experiment: Addition of known cellulite-improving drugs to cultured fibroblasts, fibulin-3 expression by quantitative PCR; assay type: cell-based; details: fibroblasts derived from human skin tissue, serum-free medium, 24 hours; conjugated linoleic acid 0.001% and 0.01% v/v, nicotinamide 0.0005% and 0.005% v/v; mRNA vs control
Procedure: as §1, §2

Row | Compound | expression of sarcoglycan gamma (sarcoglycan gamma) | alleviation of cellulite (cellulite) | expression of fibulin-3 (fibulin-3)
1 | conjugated linoleic acid | enhanced the expression of fibulin-3 and sarcoglycan in a dose-dependent manner | alleviate cellulite | enhanced the expression of fibulin-3 and sarcoglycan in a dose-dependent manner
2 | sulfocarbiose | – | alleviate cellulite | –
3 | NC(=O)c1cccnc1 [nicotinamide] | enhanced the expression of fibulin-3 and sarcoglycan in a dose-dependent manner | alleviate cellulite | enhanced the expression of fibulin-3 and sarcoglycan in a dose-dependent manner
